According to ChEMBL document CHEMBL5053501, “1,4,9-Triazaspiro[5.5]undecan-2-one Derivatives as Potent and Selective METTL3 Inhibitors” (J Med Chem, 2021):
≈ marks a conversion by molar mass, not a printed value. Calls of active or inactive are those of the source. No cut-off for these calls is given here.

Experiments:
[1] = Kinetic solubility of the compound in PBS at pH 7.4 at 100 uM incubated for 1 hr by LCMS/MS analysis; assay type: physicochemical; conditions: read-out: Kinetic_solubility
[2] = Metabolic stability in rat liver microsomes assessed as half life by LC-MS analysis; assay type: ADME, Microsome
[3] = organism: Homo sapiens; experiment: Binding affinity to human METTL16 assessed as change in melting temperature at 100 uM by thermal shift assay
[4] = organism: Homo sapiens; experiment: Binding affinity to human METTL1 assessed as change in melting temperature at 100 uM by thermal shift assay
[5] = Reduction in m6A/A ratio in poly-adenylated RNA fraction of human MOLM-13 cells measured after 16 hrs by UPLC-MS/MS analysis; assay type: functional, cell-based
[6] = tested on: MOLM-13; experiment: Growth inhibition of human MOLM-13 cells assessed as cell viability measured after 3 days; assay type: functional; conditions: MOLM-13, 72 h, time 3 day
[7] = tested on: PC-3; experiment: Growth inhibition of human PC-3 cells assessed as cell viability measured after 3 days; assay type: functional; conditions: PC-3, 72 h, time 3 day
[8] = tested on: MOLM-13; experiment: Effect on METTL3 expression in human MOLM-13 cells at 10 uM incubated for 16 hrs by Western blotting analysis; assay type: functional, cell-based
[9] = tested on: PC-3; experiment: Effect on METTL3 expression in human PC-3 cells at 10 uM incubated for 16 hrs by Western blotting analysis; assay type: functional, cell-based
[10] = tested on: MOLM-13; experiment: Reduction in m6A levels in mRNA fraction in human MOLM-13 cells at 10 uM measured after 6 days by UPLC-MS/MS analysis; assay type: functional, cell-based; conditions: time 6.0 day
[11] = tested on: MOLM-13; experiment: Reduction in m1A levels in mRNA fraction in human MOLM-13 cells at 10 uM measured after 6 days by UPLC-MS/MS analysis; assay type: functional, cell-based; conditions: time 6.0 day
[12] = tested on: MOLM-13; experiment: Reduction in m7G levels in mRNA fraction in human MOLM-13 cells at 10 uM measured after 6 days by UPLC-MS/MS analysis; assay type: functional, cell-based; conditions: time 6.0 day
[13] = tested on: MOLM-13; experiment: Reduction in m6A levels in total RNA fraction in human MOLM-13 cells at 10 uM measured after 6 days by UPLC-MS/MS analysis; assay type: functional, cell-based; conditions: time 6.0 day
[14] = tested on: MOLM-13; experiment: Reduction in m6Am levels in total RNA fraction in human MOLM-13 cells at 10 uM measured after 6 days by UPLC-MS/MS analysis; assay type: functional, cell-based; conditions: time 6.0 day
[15] = biological target: T1, METTL3/METTL14 (Homo sapiens) (UniProt Q86U44+Q9HCE5); conditions: dose 100.0 µM
[16] = biological target: N6-adenosine-methyltransferase catalytic subunit (Homo sapiens, UniProt Q86U44); experiment: Inhibition of recombinant […] (unknown origin) expressed in baculovirus infected Sf9 cells assessed as decrease in N6-methyladenosine level in oligonucleotide substrate by TR-FRET assay
Sequence of N6-adenosine-methyltransferase catalytic subunit (Q86U44 whole entry): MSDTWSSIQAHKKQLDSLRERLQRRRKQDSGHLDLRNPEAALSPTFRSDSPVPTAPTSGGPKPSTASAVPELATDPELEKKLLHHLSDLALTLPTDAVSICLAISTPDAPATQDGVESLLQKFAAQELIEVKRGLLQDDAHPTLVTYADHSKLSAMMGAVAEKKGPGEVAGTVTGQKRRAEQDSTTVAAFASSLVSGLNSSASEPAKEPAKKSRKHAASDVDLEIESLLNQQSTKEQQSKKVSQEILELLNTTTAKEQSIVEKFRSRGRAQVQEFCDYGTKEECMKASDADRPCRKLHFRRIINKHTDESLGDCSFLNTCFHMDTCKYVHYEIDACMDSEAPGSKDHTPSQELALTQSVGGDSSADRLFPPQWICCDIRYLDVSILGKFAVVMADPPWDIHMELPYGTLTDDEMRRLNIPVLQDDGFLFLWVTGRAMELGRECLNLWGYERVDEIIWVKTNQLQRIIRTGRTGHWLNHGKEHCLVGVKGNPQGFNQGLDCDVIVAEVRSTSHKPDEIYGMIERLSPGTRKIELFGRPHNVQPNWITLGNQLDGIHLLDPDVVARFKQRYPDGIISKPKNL

[17] = organism: Homo sapiens; experiment: Binding affinity to human METTL16 assessed as change in melting temperature at 1000 uM by thermal shift assay
[18] = organism: Homo sapiens; experiment: Binding affinity to human METTL1 assessed as change in melting temperature at 1000 uM by thermal shift assay
[19] = biological target: T1, METTL3/METTL14 (Homo sapiens); conditions: dose 1000.0 µM

## CNc1cc(N2CC3(CN(c4ccc(CN5CCC(C)(C)CC5)cc4)CC(=O)N3)C2)ncn1
[1]
  solubility kinetic at 1 h, 100 µM: 86 µM (≈ 38.7 µg/mL)
[2]
  half-life: 70 min

## CNc1cc(N2CCC3(CC2)CN(c2cc(F)c(CN4CCC(C)(C)CC4)cc2F)CC(=O)N3)ncn1
[3]
  deltaTm: inactive
[4]
  deltaTm: inactive
[5]
  EC50: 0.7 µM
[6]
  GI50: 12 µM
[7]
  GI50: 70 µM
[8]
  Activity: Active
[9]
  Activity: Active
[10]
  Activity: Active
[11]
  Activity: inactive
[12]
  Activity: inactive
[13]
  Activity: Active
[14]
  Activity: Active
[15]
  ΔTm: 4.7 °C

## CNc1cc(N2CCCC(O)(CNC(=O)c3ccc(CN4CCC(C)(C)CC4)cc3)C2)ncn1 (configuration not stated)
[16]
  IC50: 7 µM

## CC1(C)CCN(Cc2ccc(N3CC(=O)NC4(CCN(c5nc(Cl)nc6[nH]ccc56)CC4)C3)cc2)CC1
[1]
  solubility kinetic at 1 h, 100 µM: 45 µM (≈ 23.5 µg/mL)
[2]
  half-life: 32 min

## Nc1ncnc2c1ncn2[C@@H]1O[C@H](CSCC[C@H](N)C(=O)O)[C@@H](O)[C@H]1O [S-ADENOSYLHOMOCYSTEINE]
[16]
  IC50: 0.59 µM
[17]
  ΔTm: 0.8 °C
[18]
  ΔTm: 6.3 °C
[19]
  ΔTm: 3.7 °C
